Measured values as given in the supplement of paper PMC10307832.

Key:
Assay in all cases: relative viability (nuclei count vs DMSO), 5 days (fraction); higher = more cells survive
[1] = compound: CN(C)CC1=CC(=CC=C1)N=C(C2=CC=CC=C2)C3=C(NC4=C3C=CC(=C4)C(=O)N(C)C)O + CC(=O)c1c(C)c2cnc(Nc3ccc(N4CCNCC4)cn3)nc2n(C2CCCC2)c1=O [Palbociclib] (partner 0.5 µM)
In short: (§1)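 Lung cancer cell lines were pin-tool dosed in 1536-well plates on the day after seeding, with either a lone drug or a fixed anchor-drug dose plus five library-drug doses (not always all listed) in √10 steps. Nuclei were counted on 4× images after 5 days. Relative viability is the ratio of treated-well to vehicle-well nuclei counts, with each value a median of duplicate plates.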

[2] = compound: CN(C)CC1=CC(=CC=C1)N=C(C2=CC=CC=C2)C3=C(NC4=C3C=CC(=C4)C(=O)N(C)C)O + C[C@@H](Oc1cc(-c2cnn(C3CCNCC3)c2)cnc1N)c1c(Cl)ccc(F)c1Cl [Crizotinib] (partner 1 µM)
In short: as §1

[3] = compound: CN(C)CC1=CC(=CC=C1)N=C(C2=CC=CC=C2)C3=C(NC4=C3C=CC(=C4)C(=O)N(C)C)O + NC(=O)Nc1cc(-c2cccc(F)c2)sc1C(=O)N[C@H]1CCCNC1 [AZD7762] (partner 0.2 µM)
In short: as §1

[4] = compound: CN(C)CC1=CC(=CC=C1)N=C(C2=CC=CC=C2)C3=C(NC4=C3C=CC(=C4)C(=O)N(C)C)O + O=C(CCCCCCC(=O)Nc1ccccc1)NO [Vorinostat] (partner 1 µM)
In short: as §1

| Cell Line | relative viability ([1]; first compound 0.08 µM) | relative viability ([1]; first compound 0.253 µM) | relative viability ([1]; first compound 0.8 µM) | relative viability ([1]; first compound 2.53 µM) | relative viability ([1]; first compound 8 µM) | relative viability ([2]; first compound 0.08 µM) | relative viability ([2]; first compound 0.253 µM) | relative viability ([2]; first compound 0.8 µM) | relative viability ([2]; first compound 2.53 µM) | relative viability ([2]; first compound 8 µM) | relative viability ([3]; first compound 0.08 µM) | relative viability ([3]; first compound 0.253 µM) | relative viability ([3]; first compound 0.8 µM) | relative viability ([3]; first compound 2.53 µM) | relative viability ([3]; first compound 8 µM) | relative viability ([4]; first compound 0.08 µM) | relative viability ([4]; first compound 0.253 µM) | relative viability ([4]; first compound 0.8 µM) | relative viability ([4]; first compound 2.53 µM) | relative viability ([4]; first compound 8 µM) |
| --- | --- | --- | --- | --- | --- | --- | --- | --- | --- | --- | --- | --- | --- | --- | --- | --- | --- | --- | --- | --- |
| 201T | 0.331 | 0.346 | 0.341 | 0.384 | 0.352 | 1.03 | 1.03 | 1.02 | 1.02 | 0.981 | 0.675 | 0.6 | 0.627 | 0.607 | 0.525 | 0.988 | 0.961 | 0.908 | 0.946 | 0.879 |
| A549 | – | – | – | – | – | 0.847 | 0.683 | 0.818 | 0.686 | 0.731 | – | – | – | – | – | – | – | – | – | – |
| A-427 | 0.558 | 0.5 | 0.508 | 0.505 | 0.465 | 0.984 | 0.82 | 0.865 | 0.855 | 0.719 | 0.75 | 0.666 | 0.712 | 0.676 | 0.631 | 0.887 | 0.86 | 0.89 | 0.872 | 0.873 |
| ABC-1 | 0.775 | 0.795 | 0.588 | 0.545 | 0.569 | 1.17 | 1.12 | 1.01 | 0.764 | 0.891 | 0.805 | 1.11 | 0.81 | 0.903 | 0.676 | 1.34 | 1.21 | 1.1 | 0.895 | 1.14 |
| BEN | 0.49 | 0.485 | 0.492 | 0.467 | 0.454 | 0.791 | 0.739 | 0.866 | 0.876 | 0.641 | 0.701 | 0.71 | 0.695 | 0.728 | 0.745 | 0.577 | 0.609 | 0.578 | 0.603 | 0.575 |
| CAL-12T | 0.436 | 0.431 | 0.208 | 0.524 | 0.43 | 0.665 | 0.592 | 0.778 | 0.611 | 0.612 | 0.627 | 0.668 | 0.58 | 0.647 | 0.687 | 0.989 | 0.715 | 0.808 | 0.93 | 0.82 |
| COR-L23 | 0.321 | 0.329 | 0.379 | 0.269 | 0.326 | 0.675 | 0.603 | 0.622 | 0.532 | 0.553 | – | – | – | – | – | 0.539 | 0.44 | 0.468 | 0.407 | 0.396 |
| COR-L 105 | 0.407 | 0.4 | 0.362 | 0.379 | 0.407 | 0.857 | 0.892 | 0.882 | 0.644 | 0.625 | – | – | – | – | – | 0.782 | 0.81 | 0.753 | 1.1 | 0.66 |
| Calu-6 | – | – | – | – | – | 0.758 | 0.749 | 0.762 | 0.814 | 0.859 | – | – | – | – | – | – | – | – | – | – |
| ChaGo-K-1 | 0.918 | 0.905 | 0.971 | 0.94 | 0.839 | 1.18 | 1.1 | 1.1 | – | 1.11 | 0.832 | 0.824 | 0.902 | 0.822 | 0.896 | 0.753 | 0.737 | 0.795 | 0.738 | 0.777 |
| EBC-1 | – | – | – | – | – | 0.186 | 0.212 | 0.21 | 0.184 | 0.196 | – | – | – | – | – | – | – | – | – | – |
| EKVX | 0.392 | 0.385 | – | 0.373 | 0.42 | 0.842 | 0.921 | 1.03 | 0.879 | 0.981 | 0.745 | 0.727 | – | 0.726 | 0.696 | 0.778 | 0.726 | 0.648 | 0.858 | 0.773 |
| EMC-BAC-2 | 0.561 | 0.533 | 0.511 | 0.494 | 0.542 | 0.725 | 0.772 | 0.804 | 0.753 | 0.681 | 1.23 | 1.15 | 1.27 | 1.06 | 1.16 | 0.476 | 0.548 | 0.463 | 0.463 | 0.653 |
| EPLC-272H | 0.309 | 0.35 | 0.269 | 0.357 | 0.301 | 0.892 | 0.899 | 0.696 | 0.87 | 0.8 | 0.229 | 0.252 | 0.203 | 0.302 | 0.214 | 0.426 | 0.519 | 0.402 | 0.49 | 0.315 |
| H3255 | 0.304 | 0.331 | 0.336 | 0.334 | 0.343 | 0.958 | 0.782 | 0.756 | 0.795 | 0.85 | 1.08 | 0.85 | 0.842 | 0.967 | 0.942 | 0.826 | 0.987 | – | 0.777 | 0.845 |
| HARA | 0.242 | 0.223 | 0.247 | 0.302 | 0.236 | 1.02 | 1.02 | 1.05 | 1.02 | 1.11 | 0.296 | 0.351 | 0.155 | 0.258 | 0.324 | 0.6 | 0.528 | 0.433 | 0.715 | 0.487 |
| HCC-15 | 0.706 | 0.724 | 0.74 | 0.711 | 0.752 | 0.778 | 0.832 | 0.882 | 0.889 | 0.888 | 1.44 | 1.2 | 1.24 | 1.4 | 1.31 | 0.875 | 0.821 | 0.787 | 0.868 | 0.89 |
| HCC-44 | 0.966 | 1.01 | 0.973 | 0.923 | 1 | 0.801 | 0.752 | 0.785 | 0.727 | 0.89 | 1 | 0.987 | 1.03 | 0.946 | 1.04 | 1.18 | 1.09 | 1.2 | 1.1 | 1.29 |
| HCC-78 | 0.504 | 0.516 | 0.501 | 0.403 | 0.52 | 0.327 | 0.282 | 0.297 | 0.34 | 0.372 | 0.464 | 0.772 | 0.568 | 0.639 | 0.831 | 0.455 | 0.668 | 0.379 | 0.464 | 0.427 |
